# Legend:
# MAO-B = molecular target: T1, MAO-B (Rattus norvegicus, UniProt P19643); assay: In vitro MAO activity assay, rat brain mitochondrial suspension, phenethylamine (PEA) as substrate; type: biochemical; details: 20 min preincubation, reaction time 10 min
# T1 construct: en utilisant comme source d'enzyme une suspension mitochondriale du cerveau de rat; from tissue; host or cells: rat brain mitochondrial suspension
# T1 sequence (P19643 1-520): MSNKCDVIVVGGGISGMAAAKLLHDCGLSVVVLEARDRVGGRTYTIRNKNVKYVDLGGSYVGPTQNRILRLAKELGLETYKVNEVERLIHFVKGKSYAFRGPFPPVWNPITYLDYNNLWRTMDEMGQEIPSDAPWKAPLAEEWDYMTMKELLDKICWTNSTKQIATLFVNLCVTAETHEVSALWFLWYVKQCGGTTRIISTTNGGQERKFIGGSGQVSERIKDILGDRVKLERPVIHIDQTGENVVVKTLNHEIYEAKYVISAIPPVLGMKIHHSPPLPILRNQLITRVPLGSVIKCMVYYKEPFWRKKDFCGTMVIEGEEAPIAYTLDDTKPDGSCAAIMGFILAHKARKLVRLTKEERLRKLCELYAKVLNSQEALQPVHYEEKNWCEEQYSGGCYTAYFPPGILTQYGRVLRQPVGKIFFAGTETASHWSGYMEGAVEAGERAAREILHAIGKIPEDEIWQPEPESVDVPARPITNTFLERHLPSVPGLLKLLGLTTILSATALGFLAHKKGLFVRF
# Method: (§1) L'activité inhibitrice de la monoamine oxydase de ces composés a été mise en évidence par des mesures in vitro de la MAO.
# (§2) Le dosage de l'activité de la MAO a été effectué en utilisant comme source d'enzyme une suspension mitochondriale du cerveau de rat. Le dosage standard consiste à préincuber l'enzyme pendant 20 minutes en absence, puis en présence des inhibiteurs. Les activités sont déterminées en utilisant la sérotonine (5 HT) et la phénéthylamine (PEA) comme substrats de la MAO-A et de la MAO-B, les temps de réaction étant de 40 minutes avec la 5 HT et de 10 minutes avec la PEA. Le mode opératoire mis en oeuvre est celui du protocole de P.C. Baker : Dev. Biol. 14, 267, 1966.
# (§3) Les activités d'un certain nombre de composés selon l'invention vis-à-vis de la MAO-B et de la MAO-A sont données par leurs constantes d'inhibition Ki (MAO-B) et Ki(MAO-A) et sont rassemblées dans le tableau ci-après. TABLEAU
# MAO-A = molecular target: T2, MAO-A (Rattus norvegicus, UniProt P21396); assay: In vitro MAO activity assay, rat brain mitochondrial suspension, serotonin (5 HT) as substrate; type: biochemical; details: 20 min preincubation, substrate 5 HT, reaction time 40 min
# T2 construct: en utilisant comme source d'enzyme une suspension mitochondriale du cerveau de rat; from tissue; host or cells: rat brain mitochondrial suspension
# T2 sequence (P21396 1-526): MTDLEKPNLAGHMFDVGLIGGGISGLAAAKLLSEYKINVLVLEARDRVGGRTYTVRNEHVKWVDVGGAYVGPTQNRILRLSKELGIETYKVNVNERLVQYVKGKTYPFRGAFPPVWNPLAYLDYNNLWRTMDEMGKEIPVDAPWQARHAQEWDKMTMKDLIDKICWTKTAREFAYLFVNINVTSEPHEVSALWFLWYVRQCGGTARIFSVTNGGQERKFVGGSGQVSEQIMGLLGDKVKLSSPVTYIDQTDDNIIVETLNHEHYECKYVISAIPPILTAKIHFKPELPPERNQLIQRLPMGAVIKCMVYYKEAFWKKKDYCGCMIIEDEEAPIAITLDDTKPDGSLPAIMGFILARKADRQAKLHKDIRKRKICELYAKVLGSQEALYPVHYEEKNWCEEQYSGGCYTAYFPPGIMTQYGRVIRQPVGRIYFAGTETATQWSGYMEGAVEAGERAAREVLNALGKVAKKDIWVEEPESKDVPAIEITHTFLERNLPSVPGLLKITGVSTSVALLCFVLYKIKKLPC
# Method: as §1, §2, §3
Ki (MAO-B),Ki(MAO-A) (MAO-A),SMILES
15.6 nM,inactif,"COCCn1nnc(-c2ccc(OCc3ccccc3)cc2)n1 [MD 230300, (benzyloxy-4 phényl)-5 méthoxyéthyl-2 2H tétrazole]"
35 nM,–,"COCCn1nnc(-c2ccc(OCc3cccc(Cl)c3)cc2)n1 [MD 230324, [(chloro-3 benzyloxy)-4 phényl]-5 méthoxyéthyl-2 2H tétrazole]"
184 nM,–,"COCCn1nnc(-c2ccc(OCc3ccc(Cl)cc3)cc2)n1 [MD 230305, [(chloro-4 benzyloxy)-4 phényl]-5 méthoxyéthyl-2 2H-tétrazole]"
5 nM,–,"COCCn1nc(-c2ccc(OCc3ccc(Cl)cc3)cc2)oc1=O [MD 230306, [(chloro-4 benzyloxy)-4 phényl]-5 méthoxyéthyl-3 3H oxadiazole-1,3,4 one-2]"

# Source: patent EP0502110B1, “(HETERO) 4-ARYLMETHOXY PHENYL DIAZOLE DERIVATIVES, METHOD FOR PREPARING SAME, AND THEIR THERAPEUTICAL APPLICATIONS” (SYNTHELABO, priority 1989, dated 1991)
